The values below come from US12187742B2 (XRAD Therapeutics, Inc., priority 2018, dated 2025).

One assay addresses ATM (Homo sapiens (Human), UniProt Q13315). Kind of assay: ATM in Cell Western Assay (pKAP1 in etoposide-treated MCF-7 cells). In kind it is cell-based. In outline:
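After paraformaldehyde fixation and Triton X-100 permeabilization, immunostained plates were read by infrared scanning (ODYSSEY CLx). Compound was given as 10 doses, 3-fold dilutions from a 1 μM final top concentration.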

In the next assay the target is DNA-PK (Homo sapiens (Human), UniProt P78527). Nature of the assay: DNA-PK Enzyme-Linked Immunosorbent Assay (phosphorylation of GST-p53 (1-101) peptide). The format is biochemical. The following applies: ELISA, ATP 20 μM. On the procedure: Assay of Compounds ATM and DNA-PK Inhibition
remove wash solution, turn plate upside down onto a thin paper towel and centrifuge at 1000 rpm for 1 min to absorb all wash buffer. Clean the bottom of plate with moist lint free paper. Scan plate immediately using ODYSSEY CLx (LI-COR) for the best results. DNA-PK Enzyme-Linked Immunosorbent Assay:
On day one, coat 96-well plate (ThermoFisher. Cat #: 442404) with GST-p53 (1-101) peptide (purified by Pharmaron, BCS department) by diluting 3 μg of GST-p53 each well with 0.1 M Na2CO3/NaHCO3, pH 9.6. Incubate the plate overnight at 4° C. The second day, remove coating buffer, wash 2× with PBST (1×PBS containing 0.1% Tween-20). Then add DNA-PK enzyme solution (Invitrogen, #PR9107A; the final DNA-PK concentration is 0.1 μg/mL), series dilution compounds (the final top concentration is 100 nM, 3 fold series dilution, with total 10 doses) and ATP solution (the final ATP concentration is 20 μM) to the 96-well plate. Incubate the plate at 25° C. for 1 hour. Then wash 3× with PBST (1×PBS containing 0.1% Tween-20). Block the plate with PBST+ 1% BSA at 4° C. overnight. The third day, wash 4× with PBST (1×PBS containing 0.1% Tween-20). Then add Phospho-p53 primary antibody (cell signaling Technology, #9286, Phospho-p53 (Ser15) (16G8) Mouse mAb) (1/1000) to each well. Seal with plate and incubate the plate for 1 h at 37° C. Wash 4× with PBST (1×PBS containing 0.1% Tween-20), add 100 μL of HRP-linked secondary antibody (Cell signaling Technology, #7076, Anti-mouse IgG, HRP-linked Antibody) (1/1000) to each well. Seal with tape and incubate the plate for 30 min at 37° C. Wash 4× with PBST (1×PBS containing 0.1% Tween-20), add 100 μL of TMB (Cell signaling Technology, #7004) substrate to each well. Seal with tape and incubate the plate for 10 min at 37° C. Then add 100 μL of Stop solution (Cell signaling Technology, #7002) to each well. Read the plate at 450 nm to detect absorption.
A general note: An ELISA detects its analyte on a solid surface through an enzyme-linked reagent.

[1] abbreviates: MCF-7 cells, etoposide 100 μM, 1 hr, pKAP1 readout.
[2] abbreviates: pKAP1 in etoposide-treated MCF-7 cells.

Where a name gives a salt, the structure may show the parent alone.

ATM, sequence (Q13315 whole entry): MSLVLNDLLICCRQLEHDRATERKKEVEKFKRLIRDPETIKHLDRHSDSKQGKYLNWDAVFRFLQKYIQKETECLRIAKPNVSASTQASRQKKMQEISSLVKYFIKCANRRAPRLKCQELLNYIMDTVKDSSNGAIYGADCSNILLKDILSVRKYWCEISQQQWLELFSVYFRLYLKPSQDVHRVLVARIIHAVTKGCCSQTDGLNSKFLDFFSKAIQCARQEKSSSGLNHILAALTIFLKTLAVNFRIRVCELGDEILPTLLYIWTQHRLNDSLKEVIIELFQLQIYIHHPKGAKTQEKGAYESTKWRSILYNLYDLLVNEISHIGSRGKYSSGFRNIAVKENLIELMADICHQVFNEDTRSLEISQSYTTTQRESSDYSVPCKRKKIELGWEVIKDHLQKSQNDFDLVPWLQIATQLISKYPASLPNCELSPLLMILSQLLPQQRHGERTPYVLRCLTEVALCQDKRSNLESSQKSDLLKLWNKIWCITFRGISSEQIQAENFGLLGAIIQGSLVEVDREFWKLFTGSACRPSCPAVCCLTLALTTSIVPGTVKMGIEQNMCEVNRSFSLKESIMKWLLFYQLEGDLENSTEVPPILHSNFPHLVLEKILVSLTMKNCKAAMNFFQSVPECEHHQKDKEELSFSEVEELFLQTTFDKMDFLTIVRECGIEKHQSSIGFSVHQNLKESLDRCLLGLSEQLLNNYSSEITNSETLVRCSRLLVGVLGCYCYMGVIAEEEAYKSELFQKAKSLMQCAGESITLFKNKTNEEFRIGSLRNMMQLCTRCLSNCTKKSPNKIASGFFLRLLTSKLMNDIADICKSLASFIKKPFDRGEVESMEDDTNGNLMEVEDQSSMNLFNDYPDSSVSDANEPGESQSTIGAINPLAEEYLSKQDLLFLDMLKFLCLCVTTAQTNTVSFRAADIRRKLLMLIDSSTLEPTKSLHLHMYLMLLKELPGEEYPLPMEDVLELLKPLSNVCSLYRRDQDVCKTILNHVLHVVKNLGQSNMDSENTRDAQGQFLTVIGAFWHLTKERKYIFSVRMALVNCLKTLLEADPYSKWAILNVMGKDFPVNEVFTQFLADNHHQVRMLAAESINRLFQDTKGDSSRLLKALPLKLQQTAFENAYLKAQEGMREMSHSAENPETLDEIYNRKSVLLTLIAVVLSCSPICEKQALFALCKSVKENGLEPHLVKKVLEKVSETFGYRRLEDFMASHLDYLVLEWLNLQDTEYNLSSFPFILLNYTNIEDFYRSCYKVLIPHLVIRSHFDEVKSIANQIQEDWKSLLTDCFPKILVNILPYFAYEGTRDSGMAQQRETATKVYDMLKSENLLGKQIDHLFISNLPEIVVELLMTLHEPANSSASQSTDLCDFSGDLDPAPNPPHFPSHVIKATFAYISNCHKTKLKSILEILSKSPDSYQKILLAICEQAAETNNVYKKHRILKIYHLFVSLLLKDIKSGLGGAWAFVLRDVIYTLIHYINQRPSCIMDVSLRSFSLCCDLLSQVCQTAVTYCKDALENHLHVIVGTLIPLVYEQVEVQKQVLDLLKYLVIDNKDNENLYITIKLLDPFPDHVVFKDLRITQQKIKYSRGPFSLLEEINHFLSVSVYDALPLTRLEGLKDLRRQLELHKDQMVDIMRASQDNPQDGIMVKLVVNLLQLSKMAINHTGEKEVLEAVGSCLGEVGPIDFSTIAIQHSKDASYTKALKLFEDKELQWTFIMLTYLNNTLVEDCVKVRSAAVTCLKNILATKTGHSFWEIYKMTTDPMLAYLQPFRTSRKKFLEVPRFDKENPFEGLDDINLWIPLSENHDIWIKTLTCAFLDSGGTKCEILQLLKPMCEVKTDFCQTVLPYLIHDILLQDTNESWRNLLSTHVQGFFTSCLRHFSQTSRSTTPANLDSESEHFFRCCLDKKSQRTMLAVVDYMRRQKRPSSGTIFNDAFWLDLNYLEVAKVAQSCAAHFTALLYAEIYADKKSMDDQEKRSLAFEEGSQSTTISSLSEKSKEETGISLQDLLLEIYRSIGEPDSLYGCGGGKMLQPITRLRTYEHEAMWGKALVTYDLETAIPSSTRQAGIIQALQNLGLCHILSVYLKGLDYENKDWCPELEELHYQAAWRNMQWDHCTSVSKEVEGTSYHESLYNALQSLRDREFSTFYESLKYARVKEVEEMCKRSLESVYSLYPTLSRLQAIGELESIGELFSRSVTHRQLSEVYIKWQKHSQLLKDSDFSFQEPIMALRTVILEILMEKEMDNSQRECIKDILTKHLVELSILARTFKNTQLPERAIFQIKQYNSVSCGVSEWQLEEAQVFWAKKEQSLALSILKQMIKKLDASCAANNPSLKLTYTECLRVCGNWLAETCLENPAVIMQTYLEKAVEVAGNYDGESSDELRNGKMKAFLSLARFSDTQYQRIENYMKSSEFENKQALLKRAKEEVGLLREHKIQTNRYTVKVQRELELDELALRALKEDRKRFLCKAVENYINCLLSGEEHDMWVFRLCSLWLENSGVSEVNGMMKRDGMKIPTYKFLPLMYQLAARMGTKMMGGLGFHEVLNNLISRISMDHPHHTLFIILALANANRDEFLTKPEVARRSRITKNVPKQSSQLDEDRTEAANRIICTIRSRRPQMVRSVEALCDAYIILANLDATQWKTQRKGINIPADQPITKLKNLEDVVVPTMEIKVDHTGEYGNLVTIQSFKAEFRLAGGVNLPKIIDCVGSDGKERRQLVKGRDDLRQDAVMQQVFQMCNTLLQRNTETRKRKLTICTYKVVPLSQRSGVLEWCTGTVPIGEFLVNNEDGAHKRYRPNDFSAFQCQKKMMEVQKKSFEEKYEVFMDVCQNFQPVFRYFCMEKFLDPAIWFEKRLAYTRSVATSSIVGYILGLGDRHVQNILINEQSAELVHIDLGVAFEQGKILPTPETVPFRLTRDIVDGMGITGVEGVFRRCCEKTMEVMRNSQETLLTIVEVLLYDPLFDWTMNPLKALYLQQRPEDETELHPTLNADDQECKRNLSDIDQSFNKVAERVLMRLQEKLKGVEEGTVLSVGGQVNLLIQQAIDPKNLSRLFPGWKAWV

As to `Cc1ccc(S(=O)(=O)Nc2cc(-c3cc4c5c(cnc4cc3F)N(C)C(=O)C53CCC3)cnc2N2CC(N(C)C)C2)cc1` [Example 323, N-(2-(3-(Dimethylamino)azetidin-1-yl)-5-(7′-fluoro-3′-methyl-2′-oxo-2′,3′-dihydrospiro[cyclobutane-1,1′-pyrrolo[2,3-c]quinolin]-8′-yl)pyridin-3-yl)-4-methylbenzenesulfonamide hydrochloride], the IC50 against ATM (setting [1]) and against DNA-PK was 1 to 100 nM throughout.
For `CC(C)NCCOc1ncc(-c2cc3c4c(cnc3cc2F)N(C)C(=O)C42CN(c3ccncc3)C2)cc1NS(C)(=O)=O` [Example 547, N-(5-(7′-Fluoro-3′-methyl-2′-oxo-1-(pyridin-4-yl)-2′,3′-dihydrospiro [azetidine-3,1′-pyrrolo[2,3-c]quinolin]-8′-yl)-2-(2-(isopropylamino)ethoxy)pyridin-3-yl)methanesulfonamide], the IC50 (in general, the point on the concentration scale where inhibition reaches its midpoint) at ATM (setting [2]) was over 100 nM.
Still for that read-out and setting: the value for `CC(C)NCCOc1ncc(-c2cc3c4c(cnc3cc2F)N(C)C(=O)C42CN(C(=O)OC(C)C)C2)cc1NS(C)(=O)=O` [Example 514, Isopropyl 7′-fluoro-8′-(6-(2-(isopropylamino)ethoxy)-5-(methylsulfonamido)pyridin-3-yl)-3′-methyl-2′-oxo-2′,3′-dihydrospiro [azetidine-3,1′-pyrrolo[2,3-c]quinoline]-1-carboxylate] was 1 to 100 nM.
As for `CN(C)CCCOc1ncc(-c2ccc3ncc4c(c3c2)C2(CCC2)C(=O)N4C)cc1NS(=O)(=O)CCN1C(=O)c2ccccc2C1=O` [Example 261, N-(2-(3-(dimethylamino)propoxy)-5-(3′-methyl-2′-oxo-2′,3′-dihydrospiro[cyclobutane-1,1′-pyrrolo[2,3-c]quinolin]-8′-yl)pyridin-3-yl)-2-(1,3-dioxoisoindolin-2-yl)ethane-1-sulfonamide], the concentration for half-maximal inhibition (IC50) on ATM (setting [1]) is 1 to 100 nM.
The same measure, in the same setting: the value for `CN(C)CCOCc1ncc(-c2ccc3ncc4c(c3c2)C2(CCC2)C(=O)N4C)cc1NS(C)(=O)=O` [Example 265, N-(2-((2-(Dimethylamino)ethoxy)methyl)-5-(3′-methyl-2′-oxo-2′,3′-dihydrospiro [cyclobutane-1,1′-pyrrolo[2,3-c]quinolin]-8′-yl)pyridin-3-yl)methanesulfonamide] was over 100 nM.
Still for that read-out and setting: to `CN(C)CCCOc1ncc(-c2ccc3ncc4c(c3c2)C2(CC2)C(=O)N4C)cc1NS(=O)(=O)c1ccc(C(F)(F)F)cc1` [Example 108] belongs under 0.5 nM.
At ATM (setting [2]), `CC(C)NCCOc1ncc(-c2cc3c(cc2F)ncc2c3[C@]3(C[C@@H](Cc4ccccc4)C3)C(=O)N2C)cc1NS(C)(=O)=O` [Example 450, trans-N-(5-(3-Benzyl-7-fluoro-3′-methyl-2′-oxo-2′,3′-dihydrospiro [cyclobutane-1,1′-pyrrolo[2,3-c]quinolin]-8′-yl)-2-(2-(isopropylamino)ethoxy)pyridin-3-yl)methanesulfonamide] returned a concentration for half-maximal inhibition (IC50) of 1 to 100 nM.
Still for that read-out and setting: the value for `CC(C)NCCOc1ncc(-c2cc3c4c(cnc3cc2F)N(C)C(=O)C42CN(S(=O)(=O)c3ccccc3)C2)cc1NS(C)(=O)=O` [Example 515] was over 100 nM; that for `CC(C)NCCOc1ncc(-c2cc3c4c(cnc3cc2F)N(C)C(=O)C42CCC2)cc1NS(=O)(=O)CC#N` [Example 374, 1-Cyano-N′-(5-(7′-fluoro-3′-methyl-2′-oxo-2′,3′-dihydrospiro[cyclobutane-1,1′-pyrrolo[2,3-c]quinolin]-8′-yl)-2-(2-(isopropylamino)ethoxy)pyridin-3-yl) methanesulfonamide hydrochloride] was 1 to 100 nM.
As for `CN(C)CCCNc1ccc(-c2ccc3ncc4c(c3c2)C2(CC2)C(=O)N4C)cn1` [Example 94, 8′-(6-((3-(Dimethylamino)propyl)amino)pyridin-3-yl)-3′-methylspiro [cyclopropane-1,1′-pyrrolo[2,3-c]quinolin]-2′(3′-H)-one], the IC50 against ATM (setting [1]) was in the range of 1 to 100 nM.
At ATM (setting [2]), `CN1C(=O)C2(CCC2)c2c1cnc1ccc(-c3cnc(N4CCC(C)(N5CCCCC5)CC4)c(NS(C)(=O)=O)c3)cc21` [Example 354, N-(5-(3′-Methyl-2′-oxo-2′,3′-dihydrospiro[cyclobutane-1,1′-pyrrolo[2,3-c]quinolin]-8′-yl)-2-(4′-methyl-[l,4′-bipiperidin]-1′-yl)pyridin-3-yl)methanesulfonamide] displayed an IC50 of over 100 nM.
Same read-out and setting: to `CC(C)NCCOc1ncc(-c2cc3c4c(cnc3cc2F)N(C)C(=O)C42CN(c3cncnc3)C2)cc1NS(C)(=O)=O` [Example 549, N-(5-(7′-Fluoro-3′-methyl-2′-oxo-1-(pyrimidin-5-yl)-2′,3′-dihydrospiro[azetidine-3,1′-pyrrolo[2,3-c]quinolin]-8′-yl)-2-(2-(isopropylamino)ethoxy)pyridin-3-yl)methanesulfonamide] belongs over 100 nM.
On the same count and under the same terms, the value for `CC(C)NCCOc1ncc(-c2cc3c4c(cnc3cc2F)N(C)C(=O)C42CN([C@@H](C)c3ccccc3)C2)cc1NS(C)(=O)=O` [Example 493, (S)-N-(5-(7′-Fluoro-3′-methyl-2′-oxo-1-(1-phenylethyl)-2′,3′-dihydrospiro [azetidine-3,1′-pyrrolo[2,3-c]quinolin]-8′-yl)-2-(2-(isopropylamino)ethoxy)pyridin-3-yl)methanesulfonamide] was 1 to 100 nM.
Same read-out and setting: to `CC(C)NCCOc1ncc(-c2cc3c4c(cnc3cc2F)N(C)C(=O)C42CCC2)cc1NS(=O)(=O)C(F)F` [Example 368, 1,1-Difluoro-N-(5-(7′-fluoro-3′-methyl-2′-oxo-2′,3′-dihydrospiro[cyclobutane-1,1′-pyrrolo[2,3-c]quinolin]-8′-yl)-2-(2-(isopropylamino)ethoxy)pyridin-3-yl)methanesulfonamide] belongs over 100 nM.
On ATM (setting [2]), `CCO[C@H]1C[C@@]2(C1)C(=O)N(C)c1cnc3cc(F)c(-c4cnc(OCCNC(C)C)c(NS(C)(=O)=O)c4)cc3c12` [Example 394, trans-N-(5-(3-Ethoxy-7′-fluoro-3′-methyl-2′-oxo-2′,3′-dihydrospiro[cyclobutane-1,1′-pyrrolo[2,3-c]quinolin]-8′-yl)-2-(2-(isopropylamino)ethoxy)pyridin-3-yl)methanesulfonamide] had an IC50 of 1 to 100 nM.
Compound `COc1ncc(-c2ccc3ncc4c(c3c2)C2(CC2)C(=O)N4Cc2cn[nH]c2)cc1NS(=O)(=O)c1ccccc1` [Example 11, N-(5-(3′-((1H-Pyrazol-4-yl)methyl)-2′-oxo-2′,3′-dihydrospiro[cyclopropane-1,1′-pyrrolo[2,3-c]quinolin]-8′-yl)-2-methoxypyridin-3-yl) benzenesulfonamide] returned a half-inhibitory concentration (IC50) at ATM (setting [1]) of over 100 nM.
Take `CC(C)NCCOc1ncc(-c2cc3c4c(cnc3cc2F)N(C)C(=O)C42CN(c3cccc(OC(F)(F)F)c3)C2)cc1NS(C)(=O)=O` [Example 542, N-(5-(7′-Fluoro-3′-methyl-2′-oxo-1-(3-(trifluoromethoxy)phenyl)-2′,3′-dihydrospiro[azetidine-3,1′-pyrrolo[2,3-c]quinolin]-8′-yl)-2-(2-(isopropylamino)ethoxy)pyridin-3-yl)methanesulfonamide]: the IC50 against ATM (setting [2]) lay within 1 to 100 nM.
Same read-out and setting: to `CN1CC2(C1)CN(c1ncc(-c3ccc4ncc5c(c4c3)C3(CCC3)C(=O)N5C)cc1NS(C)(=O)=O)C2` [Example 345, N-(5-(3′-Methyl-2′-oxo-2′,3′-dihydrospiro[cyclobutane-1,1′-pyrrolo[2,3-c]quinolin]-8′-yl)-2-(6-methyl-2,6-diazaspiro[3.3]heptan-2-yl)pyridin-3-yl)methanesulfonamide formate] belongs 1 to 100 nM; to `CC(C)CCN1CC2(C1)C(=O)N(C)c1cnc3cc(F)c(-c4cnc(OCCNC(C)C)c(NS(C)(=O)=O)c4)cc3c12` [Example 492, N-(5-(7′-Fluoro-1-isopentyl-3′-methyl-2′-oxo-2′,3′-dihydrospiro[azetidine-3,1′-pyrrolo[2,3-c]quinolin]-8′-yl)-2-(2-(isopropylamino)ethoxy)pyridin-3-yl)methanesulfonamide], over 100 nM.
On ATM (setting [2]), `CCC(CC)N1CC2(C1)C(=O)N(C)c1cnc3cc(F)c(-c4cnc(OCCNC(C)C)c(NS(C)(=O)=O)c4)cc3c12` [Example 490, N-(5-(7′-Fluoro-3′-methyl-2′-oxo-1-(pentan-3-yl)-2′,3′-dihydrospiro[azetidine-3,1′-pyrrolo[2,3-c]quinolin]-8′-yl)-2-(2-(isopropylamino)ethoxy)pyridin-3-yl)methanesulfonamide] had an IC50 of 1 to 100 nM.
